Counter-ions that a name gives are not always drawn.
Target: Cdc7/ASK (Homo sapiens, UniProt O00311)
Assay: Cdc7 Biochemical Assay Method 1: 384 well ELISA, whole protein substrate MCM2, antibody against Phospho MCM2 (S53)
Set-up: purchased
Conditions: 2 μM ATP, read-out: Biochemical Method 1 (pIC50) (converted)
Procedure: This protocol describes a method for assaying Cdc7/ASK for activity. The assay is a 384 well ELISA assay, utilising a whole protein substrate (MCM2) and an antibody against Phospho MCM2 (S53). This site is thought to be specific to Cdc7/ASK phosphorylation and the assay has been validated using knockout mutants. Reagents • TBS: 25 mM Tris pH 7.2, 150 mM NaCl. (Dilute 10× stock by 1:10). • Wash Buffer: TBS+0.05% Tween 20. (Add 100 mL 1 M Tris pH 7.2, 120 mL 5 M NaCl and 2 mL 100% Tween 20 per 4 L). • Kinase Reaction Buffer: 50 mM Tris-HCl pH 8.5, 10 mM MgCl2, 1 mM DTT. (Dilute 10× stock by 1:10 and add 100 μL 1M DTT per 100 mL prior to assay). • Diethanolamine Buffer: 1 M diethanolamine pH 9.8, 0.5 mM MgCl2. • Stop Solution: 1 M NaOH. • MCM2 was expressed and purified in-house and used in the assay at a final assay concentration of 436 ng/well. • Cdc7/ASK is purchased from commercial suppliers and used in the assay at a final assay concentration of 37.97 ng/well or 20.63 nM. • ATP used as a final assay concentration of 2 μM. • Primary Antibody: Rabbit anti-Phospho MCM2 (S53 Antibody (BL3353)), is purchased from commercial suppliers at 0.2 mg/mL and used at a final assay concentration by diluting 1:800 in TBS. • Secondary Antibody: Anti-Rabbit/AP Antibody is supplied is purchased from commercial suppliers at 1 mg/mL and used at a final assay concentration by diluting 1:2000 in TBS. • Development Reagent: Dissolve one 20 mg PNPP tablet (Sigma, product […], 20 mg per tablet) per 20 mL diethanolamine Buffer (or one 5 mg PNPP tablet per 5 mL diethanolamine buffer). Cover in foil and leave shaking on a roller shaker at room temperature for up to an hour to dissolve. Methods • 1. Add 20 μL 1× working stock of Substrate (MCM2) in TBS to all wells of a clear, 384 well, Nickel-chelate microplate to give a final concentration of […]. Incubate at room temperature for at least 1 hour. Plates can be pre-coated for 1 hour and stored at 4° C. for up to 8 days. • 2. Wash with TBS+0.05% Tween 20 (80 μL×3). • 3. Add 2 μL 10× test compounds, including the positive control, in 40% DMSO/water to 'test' wells. Add 2 μL 40% DMSO/water to 'control' and 'blank' wells. The final DMSO concentration will be 4%. • 4. Add 13 μL CDC7/ASK Kinase (1.5× stock) in Kinase Reaction Buffer to 'test' and 'control' wells to give a final concentration of […]. Add 13 μL Kinase Reaction Buffer to 'blank' wells. • 5. Add 5 μL ATP (4× stock) in Kinase Reaction Buffer to all wells to give a final concentration of 2 μM. • 6. Incubate at room temperature for 90 minutes. • 7. Wash with TBS+0.05% Tween 20 (80 μL×3). • 8. Add 20 μL 1× working solution of Primary Antibody in TBS to all wells. Incubate at room temperature for 30 minutes. • 9. Wash with TBS+0.05% Tween 20 (80 μL×3). • 10. Add 20 μL 1× working solution of Secondary Antibody in TBS to all wells. Incubate at room temperature for 30 minutes. • 11. Wash with TBS+0.05% Tween 20 (80 μL×3). • 12. Add 20 μL 1× Development Reagent to all wells. • 13. Incubate at room temperature for 2 hours. Stop the reaction by adding 20 μL Stop Solution to all wells and record Absorbance on a Pherastar plate reader. Percentage inhibition values were calculated from absorbance values, using the no compound (DMSO) and no enzyme control values as 0% and 100% inhibition, respectively. IC50 determination was performed with ExcelFit software (IDBS) using curve fit 205. Z' factors were determined for each plate tested and were all above 0.5. Method 2

Sequence of Cdc7/ASK (O00311 whole entry): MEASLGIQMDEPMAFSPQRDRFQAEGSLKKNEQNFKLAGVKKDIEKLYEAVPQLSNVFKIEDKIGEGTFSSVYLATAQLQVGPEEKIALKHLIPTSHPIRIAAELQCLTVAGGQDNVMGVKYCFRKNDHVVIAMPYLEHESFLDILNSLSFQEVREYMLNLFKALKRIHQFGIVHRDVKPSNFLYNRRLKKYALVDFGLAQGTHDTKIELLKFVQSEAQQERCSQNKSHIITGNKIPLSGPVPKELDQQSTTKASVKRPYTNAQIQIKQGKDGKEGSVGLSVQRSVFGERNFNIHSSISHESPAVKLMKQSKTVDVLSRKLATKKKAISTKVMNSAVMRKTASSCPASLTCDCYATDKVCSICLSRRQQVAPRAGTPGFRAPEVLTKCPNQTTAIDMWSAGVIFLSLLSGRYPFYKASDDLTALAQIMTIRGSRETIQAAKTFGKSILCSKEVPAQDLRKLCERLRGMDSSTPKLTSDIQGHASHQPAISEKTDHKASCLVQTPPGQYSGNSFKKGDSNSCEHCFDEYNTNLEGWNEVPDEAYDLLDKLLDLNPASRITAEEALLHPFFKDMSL
Sequence of Cdc7/ASK (Q9UBU7 whole entry partner): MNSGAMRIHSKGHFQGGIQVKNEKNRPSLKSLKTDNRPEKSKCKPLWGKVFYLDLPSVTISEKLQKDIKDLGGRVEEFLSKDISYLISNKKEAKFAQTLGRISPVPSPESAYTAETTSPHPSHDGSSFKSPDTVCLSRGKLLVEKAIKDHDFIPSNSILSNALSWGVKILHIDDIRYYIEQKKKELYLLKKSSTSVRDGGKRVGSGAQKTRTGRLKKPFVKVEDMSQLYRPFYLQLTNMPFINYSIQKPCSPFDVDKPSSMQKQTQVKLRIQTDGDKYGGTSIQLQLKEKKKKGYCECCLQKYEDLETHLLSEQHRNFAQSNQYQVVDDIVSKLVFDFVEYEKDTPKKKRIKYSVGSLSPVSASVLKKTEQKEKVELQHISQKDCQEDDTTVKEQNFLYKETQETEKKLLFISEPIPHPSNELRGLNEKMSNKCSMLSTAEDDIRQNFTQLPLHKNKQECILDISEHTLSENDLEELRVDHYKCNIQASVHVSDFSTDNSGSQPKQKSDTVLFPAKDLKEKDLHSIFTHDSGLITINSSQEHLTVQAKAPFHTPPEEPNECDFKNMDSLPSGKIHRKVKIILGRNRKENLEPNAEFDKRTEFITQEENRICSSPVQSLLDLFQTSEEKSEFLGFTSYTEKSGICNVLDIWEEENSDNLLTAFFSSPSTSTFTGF

Row | Structure (SMILES) | IC50 [nM]
1 | O=C(c1csnn1)N1CCC(c2nc(-c3ccncc3)[nH]c(=O)c2Cl)CC1 [Compound 59] | 2.57
2 | CC(=O)c1ccc(C(=O)N2CCC(c3nc(-c4ccncc4)[nH]c(=O)c3Cl)CC2)cc1 [Compound 60] | 1.91
3 | COc1ccc(S(N)(=O)=O)cc1C(=O)N1CCC(c2nc(-c3ccncc3)[nH]c(=O)c2Cl)CC1 [Compound 61] | 6.17
4 | CC(=O)Nc1ccc(C(=O)N2CCC(c3nc(-c4ccncc4)[nH]c(=O)c3Cl)CC2)cc1 [Compound 62] | 12
5 | CC(C)Oc1ccc(C(=O)N2CCC(c3nc(-c4ccncc4)[nH]c(=O)c3Cl)CC2)cc1 [Compound 63] | 3.24
6 | C[C@@H](NC(=O)OC(C)(C)C)C(=O)N1CCC(c2nc(-c3ccncc3)[nH]c(=O)c2Cl)CC1 [Compound 64] | 3.98
7 | CN(c1ccc(C(=O)N2CCC(c3nc(-c4ccncc4)[nH]c(=O)c3Cl)CC2)cc1)S(C)(=O)=O [Compound 65] | 5.89
8 | O=C(c1ccccc1Cl)N1CCC(c2nc(-c3ccncc3)[nH]c(=O)c2Cl)CC1 [Compound 66] | 14.8
9 | Cc1ncsc1C(=O)N1CCC(c2nc(-c3ccncc3)[nH]c(=O)c2Cl)CC1 [Compound 67] | 1.55
10 | O=C(c1cn[nH]c1)N1CCC(c2nc(-c3ccncc3)[nH]c(=O)c2Cl)CC1 [Compound 68] | 2.69
11 | Cc1cc(C(=O)N2CCC(c3nc(-c4ccncc4)[nH]c(=O)c3Cl)CC2)no1 [Compound 69] | 3.55
12 | O=C(C1CC1(F)F)N1CCC(c2nc(-c3ccncc3)[nH]c(=O)c2Cl)CC1 (stereo not shown) [Compound 70] | 15.8
13 | C[C@H](NC(=O)OC(C)(C)C)C(=O)N1CCC(c2nc(-c3ccncc3)[nH]c(=O)c2Cl)CC1 [Compound 71] | 14.5
14 | Cc1cccc(C(=O)N2CCC(c3nc(-c4ccncc4)[nH]c(=O)c3Cl)CC2)c1 [Compound 72] | 6.92
15 | CS(=O)(=O)Cc1ccc(C(=O)N2CCC(c3nc(-c4ccncc4)[nH]c(=O)c3Cl)CC2)cc1 [Compound 73] | 5.13
16 | CCCC(NC(=O)OC(C)(C)C)C(=O)N1CCC(c2nc(-c3ccncc3)[nH]c(=O)c2Cl)CC1 (stereo not shown) [Compound 74] | 245
17 | CC(N)C(=O)N1CCC(c2nc(-c3ccncc3)[nH]c(=O)c2Cl)CC1 (stereo not shown) [Compound 75] | 9.12
18 | CN1CCC(c2nc(-c3ccncc3)[nH]c(=O)c2Cl)CC1 [Compound 79] | 10.2

Row | Structure (SMILES) | IC50 [nM]
19 | O=c1[nH]c(-c2ccncc2)nc(N2CCN(Cc3cccc(Cl)c3)CC2)c1Cl [Compound 80] | 123
20 | CC(C)CCN1CCN(c2nc(-c3ccncc3)[nH]c(=O)c2Cl)CC1 [Compound 83] | 166
21 | CC(C)N1CCN(c2nc(-c3ccncc3)[nH]c(=O)c2Cl)CC1 [Compound 86] | 138
22 | CC1CN(c2nc(-c3ccncc3)[nH]c(=O)c2Cl)CC(C)O1 (stereo not shown) [Compound 92] | 83.2
23 | CC(C)CC1CN(c2nc(-c3ccncc3)[nH]c(=O)c2Cl)CCO1 (stereo not shown) [Compound 93] | 407
24 | CCCC1COCCN1c1nc(-c2ccncc2)[nH]c(=O)c1Cl (stereo not shown) [Compound 95] | 67.6
25 | NC(=O)C1CN(c2nc(-c3ccncc3)[nH]c(=O)c2Cl)CCO1 (stereo not shown) [Compound 96] | 42.7
26 | CN(C)C(=O)C1CN(c2nc(-c3ccncc3)[nH]c(=O)c2Cl)CCO1 (stereo not shown) [Compound 97] | 200
27 | CC(C)(C)OC(=O)NCC1CN(c2nc(-c3ccncc3)[nH]c(=O)c2Cl)CCO1 (stereo not shown) [Compound 98] | 85.1
28 | COCCC1CN(c2nc(-c3ccncc3)[nH]c(=O)c2Cl)CCO1 (stereo not shown) [Compound 99] | 85.1
29 | NC(=O)C1CCN(c2nc(-c3ccncc3)[nH]c(=O)c2Cl)CC1 [Compound 100] | 12
30 | O=c1[nH]c(-c2ccncc2)nc(N2CCC(Cc3ccccc3)CC2)c1Cl [Compound 102] | 52.5
31 | CC1CN(c2nc(-c3ccncc3)[nH]c(=O)c2Cl)CC(C)N1 (stereo not shown) [Compound 108] | 174
32 | CN(C)C(=O)CN1CCN(c2nc(-c3ccncc3)[nH]c(=O)c2Cl)CC1 [Compound 110] | 661
33 | COc1cccc(N2CCN(c3nc(-c4ccncc4)[nH]c(=O)c3Cl)CC2)c1 [Compound 113] | 28.8
34 | O=c1[nH]c(-c2ccncc2)nc(N2CCCNCC2)c1Cl [Compound 115] | 229
35 | O=C1CCN(c2nc(-c3ccncc3)[nH]c(=O)c2Cl)CCN1 [Compound 117] | 5.25
36 | O=c1[nH]c(-c2ccncc2)nc(N2CCCN3CCC[C@@H]3C2)c1Cl [Compound 120] | 245

Second part, the compound after the results:

Row | IC50 [nM] | Structure (SMILES)
37 | 380 | NC(=O)[C@H]1CCCN1c1nc(-c2ccncc2)[nH]c(=O)c1Cl [Compound 118]
38 | 3.55 | O=CN1CCCN(c2nc(-c3ccncc3)[nH]c(=O)c2Cl)CC1 [Compound 119]
39 | 263 | O=c1[nH]c(-c2ccncc2)nc(N2CC(CO)C2)c1Cl [Compound 124]
40 | 53.7 | O=c1[nH]c(-c2ccncc2)nc(N2CCC3(COC3)C2)c1Cl [Compound 126]
41 | 56.2 | O=c1[nH]c(-c2ccncc2)nc(N2CC[C@@H](F)C2)c1Cl [Compound 133]
42 | 589 | CC(C)(C)N1CCCN(c2nc(-c3ccncc3)[nH]c(=O)c2Cl)CC1 [Compound 137]
43 | 100 | O=c1[nH]c(-c2ccncc2)nc(N2CCC(O)C2)c1Cl (stereo not shown) [Compound 138]
44 | 145 | O=C1CN(c2nc(-c3ccncc3)[nH]c(=O)c2Cl)CCCN1 [Compound 141]
45 | 33.9 | N#CCN1CCN(c2nc(-c3ccncc3)[nH]c(=O)c2Cl)CC1 [Compound 148]
46 | 13.2 | O=c1[nH]c(-c2ccncc2)nc(N2CCN3CC(F)(F)C[C@H]3C2)c1Cl [Compound 149]
47 | 977 | CC(C)(C)N1CCN(c2nc(-c3ccncc3)[nH]c(=O)c2Cl)CC1 [Compound 155]
48 | 155 | COC(=O)[C@@H]1CN(c2nc(-c3ccncc3)[nH]c(=O)c2Cl)CCN1C(=O)OC(C)(C)C [Compound 162]
49 | 67.6 | COC(=O)[C@@H]1CN(c2nc(-c3ccncc3)[nH]c(=O)c2Cl)CCN1 [Compound 163, methyl (2S)-4-[5-chloro-6-oxo-2-(4-pyridyl)-1H-pyrimidin-4-yl]piperazine-2-carboxylate hydrochloride]
50 | 126 | O=c1[nH]c(-c2ccncc2)nc(N2CCN[C@H](Cc3ccccc3)C2)c1Cl [Compound 165]
51 | 12.6 | C[C@H]1CN(c2nc(-c3ccncc3)[nH]c(=O)c2Cl)[C@@H](C)CN1 [Compound 172]
52 | 85.1 | C[C@@H]1CN[C@@H](C)CN1c1nc(-c2ccncc2)[nH]c(=O)c1Cl [Compound 173]
53 | 30.9 | O=c1[nH]c(-c2ccncc2)nc(N2CCN[C@H](CCO)C2)c1Cl [Compound 174]
54 | 57.5 | O=c1[nH]c(-c2ccncc2)nc(N2CCN[C@@H](CCO)C2)c1Cl [Compound 175]
55 | 4.27 | O=c1[nH]c(-c2ccncc2)nc(N2CCNC(c3cccc(O)c3)C2)c1Cl (stereo not shown) [Compound 178]
56 | 23.4 | COc1cccc(C2CN(c3nc(-c4ccncc4)[nH]c(=O)c3Cl)CCN2)c1 (stereo not shown) [Compound 179]
57 | 112 | O=c1[nH]c(-c2ccnc(O)c2)nc(C2CCOCC2)c1Cl [Compound 402, 5-chloro-2-(2-hydroxy-4-pyridyl)-4-tetrahydropyran-4-yl-1H-pyrimidin-6-one]
58 | 25.7 | N#Cc1c(C2CCOCC2)nc(-c2ccncc2)[nH]c1=O [Compound 403, 6-oxo-2-(4-pyridyl)-4-tetrahydropyran-4-yl-1H-pyrimidine-5-carbonitrile]

Reference: patent publication US10919896B2, “Preparation and uses of pyrimidinone derivatives” (Cancer Research Technology Limited, priority 2016, dated 2021)
